Measured values from ChEMBL document CHEMBL3286361, “Design and discovery of flavonoid-based HIV-1 integrase inhibitors targeting both the active site and the interaction with LEDGF/p75” (Bioorg Med Chem, 2014).
Converted amounts (≈) assume the structure as drawn.

How the values were obtained:
[1] = molecular target: T1, Human immunodeficiency virus type 1 integrase (Human immunodeficiency virus 1, UniProt Q7ZJM1); assay: Inhibition of recombinant HIV-1 integrase 3'-processing activity using 32P 5' end-labeled linear 21'mer as substrate preincubated for 30 mins prior to substrate challenge by phosphorimaging analysis
[2] = molecular target: T1, Human immunodeficiency virus type 1 integrase; assay: Inhibition of recombinant HIV-1 integrase strand transfer activity using 32P 5' end-labeled linear 21'mer as substrate preincubated for 30 mins prior to substrate challenge by phosphorimaging analysis
[3] = Cytotoxicity against human C8166 cells assessed as inhibition of cell proliferation after 72 hrs by MTT assay; format: cell-based
[4] = Therapeutic index, ratio of CC50 for human C8166 cells to EC50 for HIV-1 3B infected in human C8166 cells; format: cell-based; conditions: HIV-1 3B infected C8166 cells, read-out: Ratio CC50/EC50
[5] = test system: Human immunodeficiency virus 1; assay: Antiviral activity against HIV-1 3B infected in human C8166 cells assessed as inhibition of virus-induced cytopathogenicity by measuring syncytial cell number after 3 days by inverted microscopic analysis; format: functional, organism-based; conditions: Human immunodeficiency virus 1, 3B, C8166, 72 h
[6] = molecular target: T1, Human immunodeficiency virus type 1 integrase; assay: Inhibition of His6-tagged HIV-1 integrase assessed as decrease in integrase-Flag-LEDGF/p75 interaction preincubated with enzyme for 30 mins followed by addition of Flag-LEDGF/p75 for 1 hr by AlphaScreen assay

T1 sequence (Q7ZJM1 whole entry): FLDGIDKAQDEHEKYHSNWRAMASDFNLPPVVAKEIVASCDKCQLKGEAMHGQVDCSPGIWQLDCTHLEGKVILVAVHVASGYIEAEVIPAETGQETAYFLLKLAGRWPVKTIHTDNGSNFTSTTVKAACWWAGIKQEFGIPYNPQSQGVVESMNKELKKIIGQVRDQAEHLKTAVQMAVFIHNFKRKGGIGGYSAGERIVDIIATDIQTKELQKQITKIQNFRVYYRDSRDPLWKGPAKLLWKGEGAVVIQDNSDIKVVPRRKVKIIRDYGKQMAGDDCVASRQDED

Structure (SMILES)	IC50 [1]	IC50 [2]	CC50 at 72 h [3]	selectivity ratio [4]	EC50 [5]	IC50 [6]
O=C1C[C@@H](c2ccc(O)cc2)Oc2cc(OCc3ccc(F)cc3)cc(O)c21	> 100 µM	> 100 µM	11.5 µg/mL (≈ 30.2 µM)	6	2.06 µg/mL (≈ 5.42 µM)	–
O=c1cc(-c2ccc(O)c(O)c2)oc2cc(N3CCOCC3)cc(O)c12	> 20 µM	> 20 µM	63.6 µg/mL (≈ 179 µM)	29	2.21 µg/mL (≈ 6.22 µM)	1.6 µM
O=c1cc(-c2ccc(O)c(O)c2)oc2cc(OCc3ccc(F)cc3)cc(O)c12	> 20 µM	> 20 µM	16.2 µg/mL (≈ 41.1 µM)	2	7.37 µg/mL (≈ 18.7 µM)	–
CC(C)(C)Oc1cc2oc(-c3ccccc3)cc(=O)c2c(O)c1O	> 100 µM	> 100 µM	40.5 µg/mL (≈ 124 µM)	5	8.45 µg/mL (≈ 25.9 µM)	> 20 µM
O=c1cc(-c2ccccc2)oc2cc(N3CCOCC3)cc(O)c12	> 20 µM	> 20 µM	> 200 µg/mL	–	> 200 µg/mL	> 20 µM
O=c1c(O)c(-c2ccc(O)c(O)c2)oc2cc(OCc3ccc(F)cc3)cc(O)c12	20 µM	4 µM	5.68 µg/mL (≈ 13.8 µM)	–	> 5.68 µg/mL	0.94 µM
O=c1c(-c2ccc(O)cc2)coc2cc(OCc3ccc(F)cc3)cc(O)c12	> 100 µM	80 µM	> 200 µg/mL	> 18	11 µg/mL (≈ 29.1 µM)	> 20 µM
O=c1cc(-c2ccccc2)oc2cc(O)cc(O)c12 [CHRYSIN]	> 20 µM	> 20 µM	110 µg/mL (≈ 433 µM)	8	13.4 µg/mL (≈ 52.7 µM)	1.4 µM
O=c1c(O)c(-c2ccc(O)c(O)c2)oc2cc(O)cc(OCc3ccc(F)cc3)c12	> 20 µM	7.6 µM	24 µg/mL (≈ 58.5 µM)	5	4.54 µg/mL (≈ 11.1 µM)	1.8 µM
O=C1C[C@@H](c2ccc(O)cc2)Oc2cc(O)cc(O)c21 [NARINGENIN]	> 20 µM	> 20 µM	142 µg/mL (≈ 520 µM)	15	9.47 µg/mL (≈ 34.8 µM)	1.7 µM
O=c1cc(-c2ccccc2)oc2cc(OCc3ccc(F)cc3)cc(O)c12	> 20 µM	> 20 µM	8.35 µg/mL (≈ 23 µM)	–	> 8.35 µg/mL	> 20 µM
O=c1c(O)c(-c2ccc3c(c2)OC(c2ccccc2)(c2ccccc2)O3)oc2cc(O)cc(O)c12	> 20 µM	> 20 µM	–	–	–	> 20 µM
O=c1cc(-c2ccc(O)cc2)oc2cc(N3CCOCC3)cc(O)c12	> 20 µM	> 20 µM	105 µg/mL (≈ 311 µM)	1.5	68.4 µg/mL (≈ 202 µM)	1.7 µM
O=c1c(O)c(-c2ccc(OCc3ccc(F)cc3)c(O)c2)oc2cc(O)cc(O)c12	> 20 µM	> 20 µM	23.4 µg/mL (≈ 57 µM)	6	4.1 µg/mL (≈ 9.99 µM)	1.4 µM
O=c1c(O)c(-c2ccc(O)c(O)c2)oc2cc(N3CCOCC3)cc(O)c12	> 20 µM	> 20 µM	24.7 µg/mL (≈ 66.5 µM)	5	5.05 µg/mL (≈ 13.6 µM)	0.97 µM
CC(C)(C)Oc1cc(O)c2c(=O)c(-c3ccc(O)cc3)coc2c1	> 100 µM	70 µM	47.7 µg/mL (≈ 146 µM)	–	> 47.7 µg/mL	> 20 µM
O=c1cc(-c2ccc(O)cc2)oc2cc(OCc3ccc(F)cc3)cc(O)c12	80 µM	35 µM	16.8 µg/mL (≈ 44.4 µM)	1.6	10.7 µg/mL (≈ 28.3 µM)	> 20 µM
O=c1c(-c2ccc(O)cc2)coc2cc(O)cc(O)c12 [GENISTEIN]	> 20 µM	> 20 µM	36.2 µg/mL (≈ 134 µM)	3	13.9 µg/mL (≈ 51.4 µM)	1.1 µM
O=c1c(-c2ccc(O)cc2)coc2cc(N3CCOCC3)cc(O)c12	> 20 µM	> 20 µM	> 200 µg/mL	> 242	0.826 µg/mL (≈ 2.43 µM)	1.7 µM
CC(C)(C)Oc1cc(O)c2c(=O)cc(-c3ccc(O)cc3)oc2c1	> 20 µM	> 20 µM	25 µg/mL (≈ 76.6 µM)	8	3.2 µg/mL (≈ 9.81 µM)	> 20 µM
O=c1cc(-c2ccc(O)c(O)c2)oc2cc(O)cc(O)c12 [LUTEOLIN]	> 20 µM	8.9 µM	17.9 µg/mL (≈ 62.5 µM)	7	2.48 µg/mL (≈ 8.66 µM)	0.45 µM
O=c1c(O)c(-c2ccc(O)c(OCc3ccc(F)cc3)c2)oc2cc(O)cc(O)c12	> 20 µM	> 20 µM	23.8 µg/mL (≈ 58 µM)	51	0.47 µg/mL (≈ 1.15 µM)	1.8 µM
O=c1cc(-c2ccc(O)cc2)oc2cc(O)cc(O)c12 [APIGENIN]	> 20 µM	> 20 µM	17.2 µg/mL (≈ 63.6 µM)	4	4.46 µg/mL (≈ 16.5 µM)	1.5 µM
O=c1cc(-c2ccccc2)oc2cc(OCc3ccc(F)cc3)c(O)c(O)c12	> 20 µM	7 µM	5.8 µg/mL (≈ 15.3 µM)	2	3.04 µg/mL (≈ 8.03 µM)	> 20 µM
CC(C)(C)Oc1cc(O)c2c(=O)cc(-c3ccccc3)oc2c1	> 100 µM	50 µM	61.2 µg/mL (≈ 197 µM)	5	12.1 µg/mL (≈ 39 µM)	> 20 µM
CC(C)(C)Oc1cc(O)c2c(c1)O[C@H](c1ccc(O)cc1)CC2=O	> 100 µM	> 100 µM	25.4 µg/mL (≈ 77.4 µM)	8	3.05 µg/mL (≈ 9.29 µM)	> 20 µM
O=c1c(OCc2ccc(F)cc2)c(-c2ccc(O)c(O)c2)oc2cc(O)cc(O)c12	> 20 µM	> 20 µM	22.5 µg/mL (≈ 54.8 µM)	12	1.95 µg/mL (≈ 4.75 µM)	0.38 µM
O=c1c(O)c(-c2ccc(O)c(O)c2)oc2cc(O)cc(O)c12 [QUERCETIN]	> 20 µM	8 µM	105 µg/mL (≈ 347 µM)	44	2.05 µg/mL (≈ 6.78 µM)	0.6 µM
O=c1cc(-c2ccccc2)oc2cc(O)c(O)c(O)c12 [BAICALEIN]	–	–	30.3 µg/mL (≈ 112 µM)	–	1.67 µg/mL (≈ 6.18 µM)	–
